We go through one compound from US20140194373A1, “COSMETIC USE OF […] A DERIVATIVE THEREOF IN THE PREVENTION AND/OR TREATMENT OF BODY ODOUR” (NESTEC S.A., priority 2011, published 2014).

The experiment relates to dermicidin. In words: Differential proteomic analysis (iTRAQ) of stratum corneum varnish strips after oral supplementation, randomized double-blind study. The format is in vivo, women. The following applies: 500 mg of hesperidin per day, samples at D1 and D168, left leg, compared with placebo maltodextrin, n=33 per group. As for the experimental part: The test product consists of hesperidin and is administered orally.
The active agent was tested alone in a randomized double-blind study.
66 women were divided into two groups, one of these groups testing maltodextrin (n=33 group A), the other testing hesperidin (n=33 group B).
The supplementation was 500 mg of hesperidin per day.
The evolution of various cutaneous markers was studied by proteomics on samples of isolated stratum corneum as indicated hereinbelow.
A sample is taken at times D1 and D168 with varnish strips in order to remove only part of the stratum corneum, i.e. at most the first 4 to 5 layers of stratum corneum.
To do this, a 41 μm Nylon filter gauze of Millipore NY41 type is applied to a predefined area of the left leg. […]
These skin samples (varnish strips of stratum corneum) were then analysed by proteomics by means of an “isobaric marking” technique to evaluate the expression of the protein(s) under study. […]
The marked peptides are detected by mass spectrometry with the intrinsic mass of the peptide +145 Da, originating from the reagent. In the peptide fragmentation step, the contribution of each of the reagents is assessed by the release of ions (fragments) having different specific masses. […]

For the compound `COc1ccc([C@@H]2CC(=O)c3c(O)cc(O[C@@H]4O[C@H](CO[C@@H]5O[C@@H](C)[C@H](O)[C@@H](O)[C@H]5O)[C@@H](O)[C@H](O)[C@H]4O)cc3O2)cc1O` [hesperidin, (S)-7-[[6-0-(6-deoxy-α-L-mannopyranosyl)-β-D-glucopyranosyl]oxy]-2,3-dihydro-5-hydroxy-2-(3-hydroxy-4-methoxyphenyl)-4H-1-benzopyran-4-one], the “expression of dermicidin in stratum corneum” value is “significantly stimulates the expression of dermicidin”.
